Data as given in paper PMC7551591, “The Effect of Resveratrol or Curcumin on Head and Neck Cancer Cells Sensitivity to the Cytotoxic Effects of Cisplatin” (Nutrients, 2020).

What was measured:
Format in all cases: cell-based, human
[1] = test system: PE/CA-PJ49 tumor cells; test: MTT drug sensitivity (viability) assay, tumor cells; settings: 24 h; for IC50: Homo sapiens; for IC50 / IC 25: MTT; for Selectivity Index (SI): IC50 in HUVEC / IC50 in PE/CA-PJ49
Procedure: (§1) The MTT assay is based on the ability of viable cells to reduce the reagent 3-(4,5-dimethylthiazol-2-yl)-2,5-diphenyltetrazolium bromide to colored formazan compounds [48]. Because the transformation is only possible in viable cells, the amount of blue formazan is proportional to the number of viable cells and thus, a linear dependence exists between cell activity and absorbance. Cells were seeded in triplicate in 96-well plates at a density of 5000 cells/well, incubated at 37 °C for 24 h. […] After the incubation period, 20 μL MTT (5 mg/mL in PBS) was added and further incubated for 4 h. The supernatant was removed, and the formazan product was analyzed spectrophotometrically (570 nm) after dissolution in DMSO. Wells without cells serve as a blank, and their absorbance was subtracted from the other results. Untreated cells were used as control and their viability was assumed as 100%. Results were expressed as mean values of three determinations ± standard deviation (SD). Data are presented as percent of cell viability and compared to untreated [Viability% = (T − B)/(U − B) × 100, {where T = absorbance of treated cells; U = absorbance of untreated cells, B = absorbance of blank}]. Once percent viability was obtained, the drug response curve was generated, and inhibitory concentration (IC50 and IC25) was calculated using GraphPad Prism version 5.01 [49].
(§2) SI values of more than 2 were considered as indicative of high selectivity.
(§3) The anticancer cytotoxic activity in vitro was evaluated by the MTT assay. […] The most widely used and informative measure of a drug’s efficacy is IC50-the half-maximal inhibitory concentration. IC50 was determined at half of the difference between the maximum (plateau) and minimum absorbance values, by plotting the absorbance value at 570 nm (Y axis) versus the concentration of the compound analysed (X axis). The IC50 values were reported as a mean of three independent experiments ± standard deviation (S.D.).

[2] = test system: HUVEC normal cells; test: MTT drug sensitivity (viability) assay, normal cells; settings: 24 h; for IC 25 / IC50: MTT; for IC50: Homo sapiens
Procedure: as §1, §2, §3

[3] = test system: p21 protein (CIP1/CDKN1A) expression in HUVEC; test: Total p21 protein ELISA in cell lysates, normal cells; settings: 24 h; for n-fold p21 Protein Expression HUVEC: vs control
Procedure: After incubation, cells were washed twice with ice-cold PBS, scraped, pelleted and lysed in RIPA buffer (Pierce) supplemented with protease inhibitor cocktail (Roche) and phosphatase inhibitor (Roche) for 30 min on ice. The lysates were transfered into microcentrifuge tubes and centrifuged at 14,000× g for 5 min at 4 °C followed by sonication (10–15 s × 3). The supernatants were collected into clean microcentrifuge tubes and stored at −80 °C. Lysates protein concentration were quantified by BCA protein assay kit (Thermo Scientific) and aliquots of 50 μg of total cell lysate were used for ELISA assay.
DuoSetR IC ELISA-Human Total p21/CIP1/CDKN1A(: DYC1047-2) was purchased from R&D Systems Inc. and contains the basic components required for the development of sandwich ELISAs to measure human p21 protein also known as CIP1 and CDKN1A in cell lysates. An immobilized capture antibody specifically binds human p21. After washing away unbound material, a biotinylated detection antibody specific for human p21 is used to detect the captured protein, utilizing a standard Streptavidin-HRP format. All experiments were performed in triplicates and absorbance was measured at λ = 450 nm using a Dynex plate reader.
In cancer development and evolution p21 protein might acts as an oncogene or tumor suppressor and for this reason it could be an important player in processes such as the cancer aggressiveness or the response to chemotherapy. In this study, using ELISA assay we analyzed the expression level of p21 in the tumor cells (PE-CA/PJ49) compared to a normal cells (HUVEC).

[4] = test system: P21 (CDKN1A) gene expression in PE/CA-PJ49; test: Real-time PCR of CDKN1A (P21) gene, tumor cells; settings: 24 h, reference gene HPRT, 2^-ΔΔCt vs control
Description: In order to isolate of total RNA from treated or untreated cells was used TRIzol reagent (Invitrogen)-a monophasic solution of phenol and guanidine isothiocyanate. During the isolation phases, the TRIzol reagent maintains RNA integrity, while disrupting cells and dissolving cell components. The addition of chloroform followed by centrifugation ensures the separation phase of the solution into an aqueous phase and an organic phase. RNA remains in the aqueous phase and is recovered by isopropanol precipitation. The RNA pellet washed once with 75% ice-cold ethanol and entrifuged at 10,000× g for 5 min at 4 °C. The […] is redissolved in nuclease-free water and incubating in a 60 °C water bath for 10 min. The concentration of isolated RNA was assessed using a NanoDrop spectrophotometer ([…], Montchanin, DE, USA). RNA purity was determined by A260/A280 ratios (an […] ratio as close as possible to 2 indicates the presence of highly purified RNA). Reverse transcription of messenger RNA molecules was performed using the High-capacity cDNA Reverse Transcription Kit from Applied Biosystems, using non-specific, randomic primers, following the manufacturer's instructions (Table 1). […] The obtained cDNA was stored at 4 °C and further used in the amplification reaction Real-Time PCR (RT-PCR). […] The samples were analyzed using the formula 2^-ΔΔCt.

[5] = test system: PE/CA-PJ49 tumor cells; test: MTS cell proliferation assay (CellTiter 96), tumor cells; settings: 24 h, PE/CA-PJ49 vs HUVEC
Description: In order to determine the effect of CRM or RSV on proliferative activity of cisplatin treated cells was used the Promega CellTiter 96® AQueous One Solution Cell Proliferation Assay, a test that is based on the reduction of yellow MTS tetrazolium salt by the viable cells and generation of colored formazan soluble in the culture medium. The product was spectrophotometrically quantified by measuring the absorbance at λ = 490 nm using a Dynex plate reader (DYNEX Technologies-MRS, Chantilly, VA, USA). Results were expressed as mean values of three determinations ± standard deviation (SD). Untreated cells served as control and considered to have a proliferation index (PI = absorbance of treated cells/absorbance of untreated cells) equal to 1.

IC50 ([1]; PE/CA-PJ49) | Compound | cell viability (MTT) ([1]; 15 μM CRM, PE/CA-PJ49 vs HUVEC) | Selectivity Index (SI) [1] | IC 25 ([1]; PE/CA-PJ49) | IC 25 [2] | IC50 [2] | p21 pg/mL HUVEC ([3]; 15 μM CRM) | n-fold p21 Protein Expression HUVEC ([3]; 15 μM CRM) | n-fold P21 gene expression PE/CA-PJ49 ([4]; 15 μM CRM) | proliferative process (IP) ([5]; 15 μM CRM) | cell viability (MTT) ([1]; PE/CA-PJ49, RSV 40 μM vs untreated cells) | cell viability (MTT) ([2]; RSV 40 μM vs untreated cells) | p21 pg/mL HUVEC ([3]; 40 μM RSV) | n-fold p21 Protein Expression HUVEC ([3]; 40 μM RSV) | n-fold P21 gene expression PE/CA-PJ49 ([4]; 40 μM RSV) | proliferation (index proliferation, IP) ([5]; 40 μM RSV)
16.3 ± 3.4 µM | COc1cc(/C=C/C(=O)CC(=O)/C=C/c2ccc(O)c(OC)c2)ccc1O [CRM, Curcumin] | reduced tumor cell viability compared to normal cells HUVEC | 3.66 | 7.9 ± 1.8 µM | 19.2 ± 2.1 µM | 59.3 ± 6.1 µM | 221 pg/mL | 1.21 | 1.2 | much more intense decrease of the proliferative process | – | – | – | – | – | –
46.8 ± 2.6 µM | Oc1ccc(C=Cc2cc(O)cc(O)c2)cc1 [RSV, 3,5,4′-trihydroxystilbene] | – | 2.36 | 17.6 ± 1.5 µM | 40.6 ± 3.3 µM | 110 ± 8.6 µM | – | – | – | – | significantly affected | significantly affected | 148 pg/mL | 0.81 | 3.1 | affected the proliferation of tumor cells PE/CA-PJ49 much more than the one of normal cells HUVEC
